Data published in patent US20160324884A1, “TREATMENT OF DIABETES WITH PENTACYCLIC TRITERPENOID SAPONIN COMPOUNDS FROM SZECHUAN MELANDIUM ROOT” (priority 2013, published 2016).
Entries after “also recorded” stand apart in the source; their conditions may differ.

Experiments:
KK^Ay mice = experiment: Effects of Wacao saponins on glycemia in KK^Ay T2DM mice (Example 2); format: in vivo
Excerpt: 80 male KK^Ay mice (12 weeks of age, License NO. SCXK (BJ) 2009-0015, Beijing Huafukang Biology Technology Co. Ltd.) and 10 male normal C57BL/6 mice (12 weeks of age, License NO. SCXK (BJ) 2009-0015, Beijing Huafukang Biology Technology Co. Ltd.) were adaptively bred for one week, and then used in the pharmacological experiment.
The animals were housed individually in wood-chip-bedded plastic cages. Germ-free and high-fat diets (Beijing Huafukang Biology Technology Co. Ltd.) were used to feed the KK^Ay mice, and the standard laboratory chows were used to feed normal C57BL/6 mice. All the animals had free access to food and water.
80 KK^Ay mice were adaptively bred for 1 week, and then randomly assigned into 8 groups: Model group, Compound (1) group, Compound (2) group, Compound (3) group, Compound (4) group, Compound (7) group, Compound (8) group and metformin group, 10 mice per group. 10 normal C57BL/6 mice were used as the control group. KK^Ay mice were fed with the high-fat diet, and the control group was fed with the normal control diet. The control and model groups were hypodermically injected with sterile water, 6 medicated groups were hypodermically injected with 6 kinds of Wacao saponins, the Compounds (1), (2), (3), (4), (7) and (8), and the positive group (metformin group) was irrigated per oral. All groups were administrated at 9 am for 2 weeks. The administrating volume is 10 ml/kg BW and the administration dosage is shown in Table3.
All mice of the fasting tail blood glucose level were measured weekly using One Touch ULTRA Glucometer (Life Scan Johnson and Johnson, USA).
Each compound of Wacao saponins was dissolved into sterile water and sterilized with filtration for Sc. The metformin was dissolved into sterile water for lg. The control and model group mice were injected with sterile water, Sc. All the animals were treated at 9 am for 2 weeks.
Overnight fasting tail blood glucose level was measured weekly using One Touch ULTRA Glucometer and measured for twice.
Each group was administrated for 2 weeks (14 days) and then the experiment was terminated.
Results are expressed as means±SD. Statistical analysis were analyzed by using SPSS 10.0 software. Data were evaluated with analysis of variance.

T2DM rats = experiment: Glycosylated serum protein (GSP) and liver and muscle glycogen in T2DM rats (Example 5); format: in vivo, SD rats; conditions: 4.0 mg/kg Sc vs glucobay 20 mg/kg lg
Excerpt: 50 SD rats were adaptively bred for 1 week, and then randomly assigned into 5 groups: The control group, model group, Compound (1) group, Compound (2) group and glucobay group (the positive group), 10 rats per group. All the animals were in a standard laboratory diet. Control and model group animals were hypodermically injected with sterile water, test compound treatment groups were subcutaneously injected with the Compounds (1) and (2), and the positive group was administrated glucobay solution by gavage. All the animals were administrated at 9 am for 2 weeks, and the dose volume is 10 ml/kg BW.
The Compounds (1) and (2) were dissolved into sterile water, and sterilized with filtration, Sc. Glucobay was dissolved into sterile water, lg. Animals in the control and model groups were injected with sterile water (10 ml/kg BW), Sc. All the animals were treated at 9 am for 2 weeks (14 days).
All rats except the control group were administrated intragastrically with the high-fat emulsion (10 ml/kg) and weighed the body weight weekly. After weeks of administration, rats were intraperitoneally injected with streptozotocin (STZ, dissolved in citric acid-citrate sodium solution, pH 4.2, freshly prepared and used instantly, and store away from light) (30mg/kg). 4 days later, blood glucose level in rats was measured by tail blood test. […]

SMILES: CC(=O)OC1C(OC(=O)/C=C/c2ccc(C)cc2)C(C)OC(OC(=O)[C@]23CCC(C)(C)C[C@H]2C2C=C[C@@H]4[C@@]5(C)CC[C@H](OC6OC(C(=O)O)C(O)C(OC7OCC(O)C(O)C7O)C6OC6OC(CO)C(O)C(O)C6O)[C@@](C)(C=O)[C@@H]5CC[C@@]4(C)[C@]2(C)C[C@H]3O)C1OC1OC(C)C(O)C(O)C1O (stereo partly drawn) [Compound (1), sinocrassuloside VI]
- glycemia (fasting tail blood glucose), hypoglycemic activity (KK^Ay mice; 2.0 mg/kg BW Sc daily, after 1 week, vs model group): best hypoglycemic activity
- anti-hyperglycemia effect, compounds compared with each other (KK^Ay mice; 2.0 mg/kg BW Sc, 2 weeks, ranking): strongest anti-hyperglycemia effect
- effect on glycogen levels and GSP levels compared with glucobay (T2DM rats): better effect on up-regulating of glycogen levels and down-regulating of GSP levels; also recorded: superior to that of glucobay; also recorded: stronger than glucobay
